Read-outs that look alike come from different tables or passages of the source. Residues, ends and D or L forms follow the SMILES beside them. *: point of attachment. Biotin = O=C1N[C@H]2[C@H](CS[C@H]2CCCCC(=O)*)N1
Key:
[1] = target: T1, soluble ectodomain of sortilin-6his (Homo sapiens, UniProt Q99523, V650M); experiment: MST binding to soluble ectodomain of sortilin-6his; conditions: MST, read-out: KD score, binding to sortilin (Kd)
T1 construct: the soluble ectodomain of sortilin-6his is measured by microscale thermophoresis (MST)
T1 sequence (Q99523 with tags, fused parts or gaps V650M): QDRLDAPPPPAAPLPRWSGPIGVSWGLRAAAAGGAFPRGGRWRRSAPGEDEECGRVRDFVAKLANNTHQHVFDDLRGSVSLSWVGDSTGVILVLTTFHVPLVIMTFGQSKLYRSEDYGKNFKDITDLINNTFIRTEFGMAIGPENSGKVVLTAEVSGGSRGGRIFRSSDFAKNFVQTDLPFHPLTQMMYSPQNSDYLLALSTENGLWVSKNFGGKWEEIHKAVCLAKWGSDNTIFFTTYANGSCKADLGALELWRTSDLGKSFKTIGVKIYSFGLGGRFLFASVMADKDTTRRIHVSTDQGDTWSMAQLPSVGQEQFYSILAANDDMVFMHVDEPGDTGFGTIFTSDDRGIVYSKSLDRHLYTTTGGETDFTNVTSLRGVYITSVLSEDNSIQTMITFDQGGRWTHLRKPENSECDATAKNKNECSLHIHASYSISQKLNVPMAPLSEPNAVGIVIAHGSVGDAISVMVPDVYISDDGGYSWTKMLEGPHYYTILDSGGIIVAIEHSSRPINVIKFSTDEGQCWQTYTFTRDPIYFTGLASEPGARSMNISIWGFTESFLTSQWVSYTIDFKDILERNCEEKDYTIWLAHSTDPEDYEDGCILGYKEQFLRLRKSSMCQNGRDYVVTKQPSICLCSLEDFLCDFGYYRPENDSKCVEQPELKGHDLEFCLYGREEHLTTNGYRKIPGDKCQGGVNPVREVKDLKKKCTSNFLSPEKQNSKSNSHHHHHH

[2] = test system: HEK293 cells expressing full length sortilin receptor; experiment: Cellular uptake of NA650 in HEK293/sortilin cells; type: cell-based; conditions: Table 6; NA650 (100 nM), 3 h, biotin warhead compounds
Procedure: Cellular uptake of NA650 was investigated in HEK293 cells expressing full length sortilin receptor (Petersen et. al.). Cells were seeded in poly-L-lysine coated 96-well plates (Perkin Elmer) (40K/well) in 50 μL culture medium (DMEM (Lonza)+10% FBS (SigmaAldrich)+1% penicillin-streptomycin (SigmaAldrich)+1% GlutaMAX (Gibco)+100 μg/mL Zeocin (Invitrogen)) and incubated overnight in cell incubator (37° C., humidified, 5% CO2).
Culture medium was replaced with assay medium (DMEM (Lonza)+10% fetal bovine serum (SigmaAldrich)+1% penicillin-streptomycin (SigmaAldrich)+1% GlutaMAX (Gibco)) containing NA650 (Invitrogen) (100 nM) (Thermo Fischer) and peptidic bifunctional compounds (9.8 nM to 10 μM). Cells were incubated for 3 h in cell incubator before they were washed in dPBS (Bionordika). The DyLight650 signal in the cell layer was detected using a fluorescence plate reader (BMG Labtech Clariostar).
Cellular uptake of NA650 was investigated in HEK293 cells expressing full length sortilin receptor using a methodology analogous to example 3.

[3] = target: T2, Streptavidin-d2 and Sortilin-6His (UniProt P22629+Q99523, V650M); experiment: TR-FRET ternary complex formation streptavidin / small molecule bifunctional compound / sortilin; type: binding; conditions: Table 5; 5 μM-0.6 pM, […] incubation
T2 construct: ternary complex formation composed of streptavidin, bifunctional compound and sortilin-6his

[4] = target: streptavidin, bifunctional compound and sortilin-6his (UniProt P22629+Q99523, V650M); experiment: TR-FRET ternary complex formation streptavidin / bifunctional peptide / sortilin-6his; conditions: Table 2; […] incubation, HTRF ratio 665/620 nm
Procedure: In these experiments, the compounds of interest were titrated over 24-point in a 384-well TTP LVDS plate (SPT Labtech) to a final buffer composition of 50 mM Bis-Tris Propane pH 8, 50 mM NaCl, 0.05% Tween20, with or without 10% DMSO using a Mosquito LV pipetting robot (SPT Labtech).
The reaction was allowed to incubate for 2.5 hours at room temperature, at which point the HTRF signal ratio at 665/620 nm was determined using a plate reader (ClarioStar, BMG Labtech). All reactions were run in triplicates and data was represented as HTRF ratio as a function of bifunctional compound concentration.

[5] = Table 4, small molecule bifunctional compounds
[6] = Table 1, biotin-linker-peptide bifunctional compounds

Row | Compound | Kd [1, 5] | AUC score, target internalization [2] | AUC score, ternary complex formation [3] | Kd [1, 6] | AUC score, TR-FRET measurements of ternary complex formation [4]
1 | CC(C)(C)CC[C@H](NC(=O)c1ccc(Oc2cccc(OCCOCCOCCOCCOCCOCCNC(=O)CCCC[C@@H]3SC[C@@H]4NC(=O)N[C@@H]43)c2)nc1)C(=O)O (stereo in doubt) [BF025] | 10 to 250 nM | + (AUC < 100) | + (AUC < 25.000) |  | 
2 | CC(C)(C)CC[C@H](NC(=O)c1ccc(Oc2cccc(OCCOCCOCCOCCOCCOCCOCCOCCNC(=O)CCCC[C@@H]3SC[C@@H]4NC(=O)N[C@@H]43)c2)nc1)C(=O)O [BF017, (2S)-2-[[6-[3-[2-[2-[2-[2-[2-[2-[2-[2-[5-[(3aS,4S,6aR)-2-oxo-1,3,3a,4,6,6a-hexahydrothieno[3,4-d]imidazol-4-yl]pentanoylamino]ethoxy]ethoxy]ethoxy]ethoxy]ethoxy]ethoxy]ethoxy]ethoxy]phenoxy]pyridine-3-carbonyl]amino]-5,5-dimethyl-hexanoic acid] | 1 to 10 nM | ++ (AUC > 100) | + (AUC < 25.000) |  | 
3 | CC(C)(C)CC[C@H](NC(=O)c1ccc(Oc2cccc(OCCOCCOCCOCCOCCOCCOCCNC(=O)CCCC[C@@H]3SC[C@@H]4NC(=O)N[C@@H]43)c2)nc1)C(=O)O [BF019, (2S)-2-[[6-[3-[2-[2-[2-[2-[2-[2-[2-[5-[(3aS,4S,6aR)-2-oxo-1,3,3a,4,6,6a-hexahydrothieno[3,4-d]imidazol-4-yl]pentanoyl-amino]ethoxy]ethoxy]ethoxy]ethoxy]ethoxy]ethoxy]ethoxy]phenoxy]pyridine-3-carbonyl]amino]-5,5-dimethyl-hexanoic acid] | 1 to 10 nM | + (AUC < 100) | + (AUC < 25.000) |  | 
4 | CC(C)(C)CC[C@H](NC(=O)c1ccc(Oc2cccc3c(C(=O)NCCCNC(=O)CCOCCOCCOCCOCCNC(=O)CCCC[C@@H]4SC[C@@H]5NC(=O)N[C@@H]54)cccc23)nc1)C(=O)O [BF020, (2S)-2-[[6-[[5-[3-[3-[2-[2-[2-[2-[5-[(3aS,4S,6aR)-2-oxo-1,3,3a,4,6,6a-hexahydrothieno[3,4-d]imidazol-4-yl]pentanoylamino]ethoxy]ethoxy]ethoxy]ethoxy]propanoylamino]propylcarbamoyl]-1-naphthyl]oxy]pyridine-3-carbonyl]amino]-5,5-dimethyl-hexanoic acid] | 10 to 250 nM | ++ (AUC > 100) | ++ (AUC > 25.000) |  | 
5 | CC(C)C[C@H](NC(=O)[C@H](CC(C)C)NC(=O)[C@H](CCC(N)=O)NC(=O)[C@H](Cc1ccccc1)NC(=O)[C@H](CO)NC(=O)CNC(=O)CNC(=O)CNC(=O)CNC(=O)[C@H](CO)NC(=O)CNC(=O)CNC(=O)CNC(=O)CNC(=O)[C@H](CO)NC(=O)CNC(=O)CNC(=O)CCCC[C@@H]1SC[C@@H]2NC(=O)N[C@@H]21)C(=O)O [compound 146] (Biotin-GGSGGGGSGGGGSFQLL-OH) |  |  |  | 100 to 2000 nM | ++ (AUC > 5000)
6 | CC(C)C[C@H](NC(=O)[C@H](CC(C)C)NC(=O)[C@H](CCC(N)=O)NC(=O)[C@H](Cc1ccccc1)NC(=O)CNC(=O)CNC(=O)CNC(=O)[C@H](CO)NC(=O)CNC(=O)CNC(=O)CNC(=O)CNC(=O)[C@H](CO)NC(=O)CNC(=O)CNC(=O)CCCC[C@@H]1SC[C@@H]2NC(=O)N[C@@H]21)C(=O)O [compound 148] (Biotin-GGSGGGGSGGGFQLL-OH) |  |  |  | 100 to 2000 nM | ++ (AUC > 5000)
7 | CC(C)C[C@H](NC(=O)[C@H](CC(C)C)NC(=O)[C@H](CCC(N)=O)NC(=O)[C@H](CCCNC(=N)N)NC(=O)CNC(=O)CNC(=O)CNC(=O)[C@H](CO)NC(=O)CNC(=O)CNC(=O)CNC(=O)CNC(=O)[C@H](CO)NC(=O)CNC(=O)CNC(=O)CCCC[C@@H]1SC[C@@H]2NC(=O)N[C@@H]21)C(=O)O [compound 149] (Biotin-GGSGGGGSGGGRQLL-OH) |  |  |  | 100 to 2000 nM | + (AUC < 5000)
